Marks after values point to notes of the source that are not given here.
Tests used:
MA-treated mice [1] = experiment: MA model, HM versus L-dopa/carbidopa: locomotor activity; format: in vivo; conditions: 3 days after MA
LPS-treated mice [2] = experiment: LPS model, HM versus L-dopa/carbidopa: microglia F4/80-like immunoreactivity; format: in vivo; conditions: substantia nigra
MA-treated mice [3] = experiment: MA model, HM versus L-dopa/carbidopa: hyperthermia; format: in vivo; conditions: MA 7.5 mg/kg i.p. x 4
Description: FIGS. 31A-31B show effect of drugs on the MA-induced hyperthermia. Mice received MA injections as 2 hrs' time interval under the ambient temperature of 22.0±0.5° C.
Experimental paradigm for MA with or without compounds is in FIG. 30. Treatment with MA (7.5 mg/kg, i.p.×four times as two hour time interval) produces hyperthermia (P<0.01).

MPTP-treated mice [4] = experiment: MPTP-induced loss of nigral TH-IR with CB1 agonist/antagonist and HM; format: in vivo; conditions: given alone: AM-251 0.3, ACEA 2, HM 20 mg/kg i.p.; MPTP 20 mg/kg i.p./day x 7
Description: CB1 agonist or antagonist was administered 45 min before every MPTP, while HM was injected 30 min before every MPTP (20 mg/kg, i.p./day×7). Compounds were administered for 7 days post-final MPTP.

CB1 receptor = CB1 receptor (Rattus norvegicus, UniProt P20272); format: biochemical
LPS-treated mice [5] = experiment: LPS-induced mortality with CB1 agonist/antagonist and HM; format: in vivo; conditions: given alone: HM 20, ACEA 2, AM-251 0.3 mg/kg; 2 weeks after bilateral intrastriatal LPS
Description: Mortality was observed by 2 weeks after bilateral LPS intrastriatal injection (one side: 2 μg×2).

MPTP-treated mice [6] = experiment: Hypokinesia (reduction in locomotor activity) induced by MPTP; format: in vivo; conditions: 12 or 24 mg/kg i.p. 30 min before MPTP (20 mg/kg/day x 7), last three days
cocaine-treated mice = experiment: Cocaine-induced Fos-related antigen-immunoreactivity (FRA-IR) in the striatum; conditions: cocaine 5 mg/kg; morphinan 20 mg/kg i.p.
LPS-treated mice [7] = experiment: Hypokinesia induced by intrastriatal LPS; conditions: 12 or 24 mg/kg, twice before bilateral intrastriatal LPS
Description: Male mice were anesthetized with chloral hydrate (200 mg/kg, i.p.) and positioned in a small-animal stereotaxic apparatus. […] LPS (2 μg in a volume of 2 μl of PBS) was injected into both sides of the striatum over a period of 2 min, and the injection needle was kept in place for 2 min after the injection. Control animals received striatal injection with PBS.
Ten min after the last treatment with each drug, locomotor activity was measured for 30 min. After measuring the locomotor activity (i.e. 40 min after the last drug injection), the ‘absolute turn angular’ was analyzed in a 3-min monitoring period using an automated video-tracking system (Noldus Information Technology, Wagenin, The Netherlands) to examine locomotor patterns. […] Eight test boxes (40×40×30 cm high) were operated simultaneously by an IBM computer. Animals were studied individually during locomotion in each test box, where they were adapted for 10 min before starting the experiment. […] The distance traveled in cm by the animals in horizontal locomotor activity was analyzed (13, 25, 27). Data were collected and analyzed between 0900 and 1700 hr.

MA-treated mice [8] = experiment: MA model, HM versus L-dopa/carbidopa: nigral TH-IR; conditions: mouse, in vivo
Text: FIGS. 33A-33G show effects of carbidopa, L-dopa, carbidopa plus L-dopa, and HM on the nigral tyrosine hydroxylase-like immunoreactivity (TH-IR) of the mice treated with MA. […] Magnification=40×.

[9] = system: NMDA receptor associated PCP sites; conditions: cited from earlier work
cannabinoid CB1 site = cannabinoid CB1 site (Rattus norvegicus, UniProt P20272)
MA-treated mice [10] = experiment: MA-induced loss of nigral TH-IR with CB1 agonist/antagonist and HM; conditions: given alone
Description: Compounds were administered 3 days before and after MA injection.

C57 BL/6 mice [11] = experiment: Locomotor activity and locomotor pattern following repeated administration of morphinans or PCP; format: in vivo
MA-treated mice [12] = experiment: Nigral TH-IR in MA-treated mice; conditions: 24 mg/kg i.p.
MA-treated mice [13] = experiment: MA-induced behavioural sensitization
Description: Morphinans (20 mg/kg, i.p.) were administered last 3 days of wash-out period.

LPS-treated mice [14] = experiment: LPS model, HM versus L-dopa/carbidopa: mortality; format: in vivo; conditions: intrastriatal LPS 2 μg x 4/head; 2 weeks
Description: Mortality was observed by 2 weeks after LPS injection. *P<0.01 vs. Saline+LPS (x^2-test).
The neuroprotective effect of HM was compared with L-dopa, carbidopa, or carbidopa plus L-dopa in response to dopaminergic damage induced by LPS. Intrastriatal injection of LPS (2 μg×4/head) produced high mortality (ten animals died out of twelve animals in the 2 weeks after LPS administration).

MA-treated mice [15] = experiment: Hypokinesia induced by MA; format: in vivo; conditions: 12 and 24 mg/kg; 3 days after final MA
MPTP-treated mice [16] = experiment: Nigral tyrosine hydroxylase-like immunoreactivity in MPTP-treated mice; conditions: 24 mg/kg i.p.
Description: Each morphinan was administered 30 min prior to every injection of MPTP for last three days (from day 4th to day 7th). Animals were sacrificed 24 h after the last MPTP treatment.

MPTP-treated mice [17] = experiment: MPTP model, HM versus L-dopa/carbidopa: locomotor activity; format: in vivo; conditions: HM 24 mg/kg i.p., L-dopa 200 mg/kg p.o., carbidopa 20 mg/kg p.o., 2 weeks before MPTP
Description: FIGS. 20A-20B show effects of carbidopa, L-dopa, carbidopa+L-dopa and HM on the changes in locomotor activity (A) and locomotor pattern (B) induced by MPTP in mice.
A prescription drug for treating Parkinsonian patients is L-dopa or carbidopa plus L-dopa. Thus, the neuroprotective effects of HM was compared with L-dopa, carbidopa, or carbidopa plus L-dopa. […] Locomotor activity was examined for 60 min after final treatment of MPTP. Mice were sacrificed at 24 h after final MPTP administration. HM (24 mg/kg, i.p.), L-dopa (200 mg/kg, p.o.) with or without carbidopa (20 mg/kg, p.o.) was administered for 2 weeks before first MPTP challenge.

LPS-treated mice [18] = experiment: LPS model, HM versus L-dopa/carbidopa: nigral TH-IR; conditions: mouse, in vivo
Text: FIG. 27 show effects of carbidopa, L-dopa, carbidopa+L-dopa and HM on the nigral tyrosine hydroxylase-like immunoreactivity (TH-IR) of the mice treated with LPS.

MPTP-treated mice [19] = experiment: Striatal dopamine and metabolites (HPLC-EC) in MPTP-treated mice; conditions: for Concentration DA in the striatum: mean ± S.E.M., 8 animals
[20] = system: kainate or maximal electric shock; conditions: kainate (24) or maximal electric shock (27); cited from earlier work
C57 BL/6 mice [21] = experiment: Conditioned place preference (psychological dependence) following repeated administration of morphinans or PCP; format: in vivo; conditions: 20 or 40 mg/kg i.p. (PCP 2.5 or 5 mg/kg); vs saline
Description: On day 14, the guillotine doors were raised. […] Data were analyzed between 0900 and 1700 hr.

CB1 receptor, sequence (P20272 whole entry): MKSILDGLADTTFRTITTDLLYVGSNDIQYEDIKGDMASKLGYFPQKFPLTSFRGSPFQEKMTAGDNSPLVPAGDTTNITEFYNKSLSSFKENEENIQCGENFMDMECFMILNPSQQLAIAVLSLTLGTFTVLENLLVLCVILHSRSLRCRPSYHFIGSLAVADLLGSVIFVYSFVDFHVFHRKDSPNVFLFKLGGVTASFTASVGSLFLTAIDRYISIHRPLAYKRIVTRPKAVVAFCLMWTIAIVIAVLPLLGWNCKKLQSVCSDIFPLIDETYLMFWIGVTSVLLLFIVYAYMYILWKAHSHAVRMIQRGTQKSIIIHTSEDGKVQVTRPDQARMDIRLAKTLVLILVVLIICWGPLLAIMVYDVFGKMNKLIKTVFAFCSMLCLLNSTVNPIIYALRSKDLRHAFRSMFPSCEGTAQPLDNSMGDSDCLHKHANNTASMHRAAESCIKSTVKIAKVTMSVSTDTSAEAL
cannabinoid CB1 site, sequence (P20272 whole entry): as above

## Oc1ccc2c(c1)[C@@]13CCCC[C@H]1[C@@H](C2)NCC3 [HM, 3-hydroxymorphinan]
MA-treated mice [1]
  effect on MA-induced reduction in locomotor activity: more efficacious than that of L-dopa or carbidopa+L-dopa
LPS-treated mice [2]
  effect on LPS-induced increase in F4/80-like immunoreactivity (microglia): most effective in attenuating LPS-induced increase in F4/80-like immunoreactivity
MA-treated mice [3]
  effect on MA-induced hyperthermia: significantly attenenuated
MPTP-treated mice [4]
  effect on MPTP-induced reduction of nigral TH-IR: Attenuates MPTP-induced Reduced Tyrosine Hydroxylase-like Immunoreactivity
CB1 receptor
  effect on CP 55940-induced stimulation in GTP γS binding: decreased
  functional property at CB1 receptor: partial agonist of CB1 receptor, as well as a CB1 antagonist
CB1 receptor; 100 nM
  inhibition of GTP γS binding: about 60%
LPS-treated mice [5]
  effect on LPS-induced mortality: No animal died
MPTP-treated mice [6]
  effect on MPTP-induced reduction in locomotor activity: significantly prevented MPTP-induced reduction in locomotor activity
cocaine-treated mice
  effect on cocaine-induced FRA-IR in the striatum: apparently attenuated
LPS-treated mice [7]
  effect on LPS-induced decrease in locomotor activity: significantly prevented LPS-induced decrease in locomotor activity
MA-treated mice [8]
  effect on MA-induced nigral loss in TH-IR: more pronounced than that of carbidopa+L-dopa
[9]
  affinity for NMDA receptor associated PCP sites: very low affinities
Cannabinoid CB1 site
  Ki: 11.5 nM
MA-treated mice [10]
  effect on MA-induced reduction in nigral TH-IR: Prevents Methamphetamine (MA)-induced Reduction in Tyrosine Hydroxylase-like Immunoreactivity
C57 BL/6 mice [11]; 40 mg/kg i.p. (PCP 5 mg/kg), FIG. 3
  locomotor pattern (tracings): did not produce significant marginal activity
C57 BL/6 mice [11]; 20 or 40 mg/kg i.p./day x 7 (PCP 2.5 or 5 mg/kg), 3-min period, vs saline
  marginal activity (circling behaviour; absolute turn angular): did not significantly affect marginal activity
C57 BL/6 mice [11]; 20 or 40 mg/kg i.p./day x 7 days, 30 min after final treatment, vs saline
  locomotor activity (total distance moved): comparable to that with saline
MA-treated mice [12]
  effect on MA-induced decrease in nigral TH-positive cells: significantly attenuated the decrease in TH-positive cells
MA-treated mice [13]; AM 251 0.3, ACEA 2, HM 20 mg/kg, no MA (Ex. 3.14)
  behavioural effects of the compound itself: Neither saline-, AM 251 (0.3 mg/kg)-, ACEA (2 mg/kg)-treated nor HM (20 mg/kg)-treated animals showed any behavioural effects
MA-treated mice [13]; MA 1 mg/kg i.p./day x 7, challenge one week later (Ex. 3.14)
  effect on MA-induced behavioural sensitization (CB1 modulation study): significantly reduced
LPS-treated mice [14]
  effect on mortality induced by LPS: most pronounced
MA-treated mice [15]
  effect on MA-induced reduction in locomotor activity: appeared to be the most effective in preventing reduction in motor activity
MPTP-treated mice [16]
  effect on MPTP-induced decrease in nigral TH-positive cells: significantly attenuated the decrease in TH-positive cells
MPTP-treated mice [17]
  effect on MPTP-induced decrease in locomotor activity: significantly increased
LPS-treated mice [18]
  effect on LPS-induced loss in nigral TH-IR: most effective in attenuating LPS-induced reduction in TH-IR
MPTP-treated mice [19]; 24 mg/kg pretreatment
  effect on MPTP-induced reductions in striatal DA, DOPAC and HVA: significantly protected
MPTP-treated mice [19]; morphinan 12 (mg/kg) + MPTP
  Concentration DOPAC in the striatum: 68 ± 7 ng/100 mg wet tissue
  Concentration HVA in the striatum: 84 ± 8 ng/100 mg wet tissue
  Concentration DA in the striatum: 582 ± 74 ng/100 mg wet tissue
MPTP-treated mice [19]; morphinan 24 (mg/kg) + MPTP
  Concentration DOPAC in the striatum: 98 ± 9^c ng/100 mg wet tissue
  Concentration HVA in the striatum: 104 ± 10^c ng/100 mg wet tissue
  Concentration DA in the striatum: 896 ± 79^c ng/100 mg wet tissue
[20]
  anticonvulsant effect: did not show any anticonvulsant effect
C57 BL/6 mice [21]
  conditioned place preference (CPP): almost no CPP effects

Source: patent US7691874B2, “Neuroprotective properties of dextrorotatory morphinans” (priority 2004, dated 2010)
